System: Foxp3 induction in CD4 conventional T cells (iTreg induction)
Assay: Foxp3 induction assay
Format: cell-based, C57/B16 mice
Settings: T-cell, 72 h; mouse CD4 Tconvs, anti-CD3/anti-CD28, IL2, TGF-β, 3 days of culture, flow cytometry; read-out: IC50 value as measured by the Foxp3 induction assay
Description: Sorted or enriched (Miltenyi magnetic separation) CD4 conventional T cells (Tconvs −CD4+/CD25) from C57/B16 mice were used for the induction of iTregs. A 10 µg/mL plate-bound anti-CD3 antibody (50 ul per well for 96-well plate), […] of soluble anti-CD28 antibody, 100 IU/mL of IL2 and 5 ng/mL of TGF-β in absence or presence of different concentrations of drug (usually titrating from 0.01 uM to 10 uM) were used. As negative control for induction, samples without TGF-β were used.
After 3 days of culture in presence of stimulation, TGF-β and drug, cells were stained with fixable live/dead cell stain (Life Technologies, NY) for gating and exclusion of toxic doses. The mouse Foxp3 buffer kit was used to fix and permeabilize cells according to the manufacturer's instructions (BD Bioscience, San Jose, CA). The anti-CD4 antibody and anti-Foxp3 antibody were used to stain the cells. After staining, cells were acquired using flow cytometer.

O=C(Nc1ccc2c(c1)Nc1ccncc1CC2)c1ccc(Nc2ccncc2)cc1 [Compound 1, N-(10,11-dihydro-5H-benzo[b]pyrido[3,4-f]azepin-7-yl)-4-(pyridin-4-ylamino)benzamide]
IC50: < 1000 nM

From patent US20250074905A1, “AKT3 MODULATORS” (Georgiamune Inc., priority 2021, published 2025)
